One data set deals with P. falciparum K1. Kind of data set: Asexual blood stage growth inhibition, SYBR Green I, 72 h. Format: cell-based. As to conditions: Plasmodium falciparum, mean (standard error) of 3 biological replicates. As to the method:
(§1) Asexual blood stage P. falciparum strains, including 3D7 and drug-resistant field isolates, were cultured using standard conditions in RPMI 1640 with 0.5% Albumax as described previously. EC₅₀ values were determined using a SYBR Green I fluorescence assay after 72 h of compound exposure. EC50 values were derived by nonlinear regression in GraphPad Prism version 10.

The next data set concerns P. falciparum 7G8. The data set is described as above. Format: cell-based. As to conditions: Plasmodium falciparum, mean (standard error) of 3 biological replicates. On the procedure:
as §1

Another data set deals with P. falciparum Dd2-B2. The description is as above. Format: cell-based. As to conditions: Plasmodium falciparum, mean (standard error) of 3 biological replicates. As to the method: as §1
A further data set has as its system P. falciparum 3D7. Described as above. Format: cell-based. As to conditions: Plasmodium falciparum, mean (standard error) of 3 biological replicates. As to the method: as §1
The next data set concerns the target T1, ROCK2 (Homo sapiens, UniProt O75116).
T1 construct: purchased Eurofins (DiscoverX)
Kind of data set: KdElect binding affinity assay. As to conditions: for Kd for ROCK2 higher compared to RUPB-61: range over RUPB-8, -18, -34 and over ROCK1 and ROCK2; for Kd: read-out: ROCK2 Experimental Kd. On the procedure: (§2) Off-target kinase inhibition was assessed using the DiscoverX scanMAX (Eurofins) panel at 1 µM compound concentration. Binding affinities of CIT, ROCK1 and ROCK2 were evaluated using the KdElect assay (Eurofins).

Another data set deals with T2, CIT (Homo sapiens, UniProt O14578).
T2 construct: purchased Eurofins (DiscoverX)
T2 sequence (O14578 whole entry): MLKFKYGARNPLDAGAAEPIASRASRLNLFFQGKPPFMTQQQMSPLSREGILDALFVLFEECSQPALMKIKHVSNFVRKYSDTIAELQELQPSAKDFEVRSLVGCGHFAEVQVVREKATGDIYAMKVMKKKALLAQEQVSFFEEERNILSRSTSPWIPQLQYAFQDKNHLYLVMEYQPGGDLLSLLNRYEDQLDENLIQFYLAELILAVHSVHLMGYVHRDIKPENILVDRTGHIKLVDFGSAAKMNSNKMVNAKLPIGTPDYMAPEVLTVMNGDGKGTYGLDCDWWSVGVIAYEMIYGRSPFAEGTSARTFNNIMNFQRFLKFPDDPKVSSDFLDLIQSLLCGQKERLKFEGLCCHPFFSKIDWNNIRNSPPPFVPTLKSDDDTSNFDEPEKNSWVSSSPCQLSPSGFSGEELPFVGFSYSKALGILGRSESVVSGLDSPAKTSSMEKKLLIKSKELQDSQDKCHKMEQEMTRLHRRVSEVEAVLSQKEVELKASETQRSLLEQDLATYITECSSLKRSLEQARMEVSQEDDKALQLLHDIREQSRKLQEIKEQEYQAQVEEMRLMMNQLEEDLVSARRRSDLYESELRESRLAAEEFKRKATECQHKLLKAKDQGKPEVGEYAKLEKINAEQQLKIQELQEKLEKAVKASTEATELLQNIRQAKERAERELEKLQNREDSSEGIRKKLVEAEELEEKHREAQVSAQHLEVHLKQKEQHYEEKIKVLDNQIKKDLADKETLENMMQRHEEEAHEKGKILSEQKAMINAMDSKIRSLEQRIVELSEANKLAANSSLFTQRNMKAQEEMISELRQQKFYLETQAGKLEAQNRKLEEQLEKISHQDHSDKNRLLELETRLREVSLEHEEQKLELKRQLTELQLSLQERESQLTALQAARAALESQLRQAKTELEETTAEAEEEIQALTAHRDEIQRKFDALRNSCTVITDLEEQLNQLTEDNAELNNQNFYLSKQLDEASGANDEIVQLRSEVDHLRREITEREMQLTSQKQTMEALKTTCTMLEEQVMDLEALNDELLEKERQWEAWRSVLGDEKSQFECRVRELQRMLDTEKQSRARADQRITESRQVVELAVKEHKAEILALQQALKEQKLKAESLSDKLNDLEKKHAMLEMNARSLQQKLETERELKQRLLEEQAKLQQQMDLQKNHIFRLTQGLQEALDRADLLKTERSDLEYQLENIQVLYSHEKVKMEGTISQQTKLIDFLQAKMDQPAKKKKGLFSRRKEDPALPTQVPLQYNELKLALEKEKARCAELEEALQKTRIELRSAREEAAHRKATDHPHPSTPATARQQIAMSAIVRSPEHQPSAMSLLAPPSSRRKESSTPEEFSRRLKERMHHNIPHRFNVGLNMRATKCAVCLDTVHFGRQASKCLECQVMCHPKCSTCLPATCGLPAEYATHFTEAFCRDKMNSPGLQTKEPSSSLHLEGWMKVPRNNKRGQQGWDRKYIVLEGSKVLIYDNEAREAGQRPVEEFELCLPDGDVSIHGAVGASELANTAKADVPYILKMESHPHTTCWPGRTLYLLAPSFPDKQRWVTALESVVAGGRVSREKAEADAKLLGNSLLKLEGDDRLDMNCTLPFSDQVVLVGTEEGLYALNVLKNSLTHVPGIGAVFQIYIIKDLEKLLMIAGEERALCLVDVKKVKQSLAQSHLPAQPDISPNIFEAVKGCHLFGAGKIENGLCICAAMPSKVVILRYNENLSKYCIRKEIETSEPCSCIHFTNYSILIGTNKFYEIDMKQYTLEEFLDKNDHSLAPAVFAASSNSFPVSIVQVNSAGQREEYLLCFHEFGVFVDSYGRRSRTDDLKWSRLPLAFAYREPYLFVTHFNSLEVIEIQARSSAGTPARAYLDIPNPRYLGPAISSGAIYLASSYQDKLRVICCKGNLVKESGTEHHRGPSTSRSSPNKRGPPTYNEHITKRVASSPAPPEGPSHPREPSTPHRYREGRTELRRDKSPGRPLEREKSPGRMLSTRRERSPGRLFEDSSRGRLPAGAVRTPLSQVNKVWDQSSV
Kind of data set: KdElect binding affinity assay. As to conditions: for Kd: read-out: CIT Experimental Kd; for Kd for CIT higher compared to RUPB-61: range over RUPB-18, -34, -69. On the procedure: as §2

The target of another data set is T3, ROCK1 (Homo sapiens, UniProt Q13464).
T3 construct: purchased Eurofins (DiscoverX)
T3 sequence (Q13464 whole entry): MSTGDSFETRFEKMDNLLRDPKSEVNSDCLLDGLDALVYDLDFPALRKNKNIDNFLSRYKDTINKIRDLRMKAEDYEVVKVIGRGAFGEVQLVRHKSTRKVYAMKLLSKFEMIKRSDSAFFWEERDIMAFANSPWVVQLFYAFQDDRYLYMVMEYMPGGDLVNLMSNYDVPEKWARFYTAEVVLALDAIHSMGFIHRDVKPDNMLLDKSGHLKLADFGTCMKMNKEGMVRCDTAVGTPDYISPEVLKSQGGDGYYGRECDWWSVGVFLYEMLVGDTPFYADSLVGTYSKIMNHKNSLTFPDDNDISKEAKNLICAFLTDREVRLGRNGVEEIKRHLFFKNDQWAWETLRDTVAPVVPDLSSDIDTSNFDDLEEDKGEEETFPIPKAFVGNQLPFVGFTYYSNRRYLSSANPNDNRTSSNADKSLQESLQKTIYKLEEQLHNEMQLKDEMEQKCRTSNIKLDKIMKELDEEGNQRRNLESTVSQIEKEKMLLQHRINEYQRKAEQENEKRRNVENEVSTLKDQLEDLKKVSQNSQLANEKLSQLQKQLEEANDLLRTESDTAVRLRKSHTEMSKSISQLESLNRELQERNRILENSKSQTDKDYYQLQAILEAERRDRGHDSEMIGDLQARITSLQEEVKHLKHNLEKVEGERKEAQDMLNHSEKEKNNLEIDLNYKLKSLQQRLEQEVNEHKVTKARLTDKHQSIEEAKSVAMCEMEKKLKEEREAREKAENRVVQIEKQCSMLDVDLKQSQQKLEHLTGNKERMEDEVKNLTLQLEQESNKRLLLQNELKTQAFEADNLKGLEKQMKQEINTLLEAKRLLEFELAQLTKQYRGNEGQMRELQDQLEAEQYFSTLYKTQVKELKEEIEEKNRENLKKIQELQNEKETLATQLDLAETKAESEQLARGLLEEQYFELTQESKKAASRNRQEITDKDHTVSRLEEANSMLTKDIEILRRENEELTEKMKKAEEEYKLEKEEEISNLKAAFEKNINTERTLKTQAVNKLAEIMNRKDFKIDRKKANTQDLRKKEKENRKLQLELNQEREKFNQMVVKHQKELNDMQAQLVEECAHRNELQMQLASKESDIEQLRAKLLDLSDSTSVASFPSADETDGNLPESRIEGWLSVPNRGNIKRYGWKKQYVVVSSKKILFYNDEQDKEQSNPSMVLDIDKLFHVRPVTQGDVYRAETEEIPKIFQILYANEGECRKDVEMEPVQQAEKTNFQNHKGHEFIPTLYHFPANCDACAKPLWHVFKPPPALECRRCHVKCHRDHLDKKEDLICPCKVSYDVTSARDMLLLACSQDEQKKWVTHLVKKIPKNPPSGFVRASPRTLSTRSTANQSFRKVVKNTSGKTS
Kind of data set: KdElect binding affinity assay. As to conditions: for Kd for ROCK1 higher compared to RUPB-61: range over RUPB-8, -18, -34 and over ROCK1 and ROCK2; for Kd: read-out: ROCK1 Experimental Kd; for ROCK1 Experimental Binding (ΔG): ∆G = -RTln(Kd), 300K. As to the method:
as §2

Data set [1] deals with P. falciparum CamWT and CamC580Y. As to conditions: ring-stage assays; cited from earlier work.
For a further data set, the system named is P. falciparum TM90_C2B. Kind of data set: Asexual blood stage growth inhibition, SYBR Green I, 72 h. Format: cell-based. As to conditions: Plasmodium falciparum, mean (standard error) of 3 biological replicates. On the procedure: as §1
For data set [2], the system named is PfPKG. As to conditions: cited from earlier work.
Data set [3] concerns the target PfPKG (Plasmodium falciparum, UniProt Q8I719). Kind of data set: PfPKG enzyme inhibition. Format: biochemical. As to conditions: for IC50: Table 7, spread in parentheses not defined.
Data set [4] is described as follows: Cellular cytotoxicity, hepatocyte nuclear counts. As to conditions: simian, primary cryopreserved simian hepatocytes (lot OQB); cellular cytotoxicity. Format: cell-based, simian. An excerpt: (§3) Primary cryopreserved hepatocytes were selected based on host-parasite compatibility: primary simian hepatocytes (lot OQB) for P. cynomolgi and human hepatocytes (lot BGW) for P. falciparum (BioIVT Inc., Baltimore, MD, USA). Cells were thawed according to the manufacturer’s protocol and seeded into 384-well collagen-coated assay plates (Greiner Bio-One, Monroe, NC, USA) using InVitroGro CP plating medium (BioIVT). Seeding densities were optimized for uniform monolayer formation, and hepatocytes were allowed to adhere for 24–48 hours before infection. Sporozoites were added at a 1:1.1 hepatocyte-to-sporozoite ratio within 48 hours post-seeding. Automated robotic systems were used for media changes and compound additions to ensure assay consistency and minimize variability associated with manual pipetting.
Test compounds (PfPKG inhibitors) and assay drug controls (KDU-691 and tafenoquine) were solubilized in DMSO or PBS and serially diluted into 8- or 12-point, 2- or 3-fold series, achieving final assay concentrations ranging from 20 µM to 0.019 µM. Compounds were introduced using a calibrated pin tool controlled by robotic arms (V&P Scientific), ensuring a 1:1000 dilution into assay wells. Media were replenished daily with fresh drug-containing HCM. Compounds were added 1-hour post-infection (p.i.) (day 0) and administered daily for 3 days. Cells were fixed on day 6 p.i. of P. falciparum culture and day 8 for P. cynomolgi infected culture, coinciding with liver stage schizont maturation.
High-content imaging was performed using the Operetta CLS system (Revvity) and image analysis was performed with Harmony software version 4.9 (Revvity, Waltham, MA, USA). Images were acquired at 10x or 20x magnification using DAPI and TRITC fluorescence channels. Following the established protocol, parasites were classified as hypnozoites or schizonts based on fluorescence intensity (mean and maximum), morphological features (cell roundness and size), and segmentation criteria. Hepatocyte nuclei were identified using Hoechst 33342 staining. Background signal was captured in uninfected, stained wells and subjected to the same parasite detection algorithm. Estimate erroneous parasite counts were then subtracted from infected well counts. Hepatocyte viability was determined by quantifying nuclear counts per well using Hoechst stain intensity thresholds. […] An in-house built Python-based image analysis script identified parasite objects using predefined fluorescence intensity thresholds. […] Parasite size was quantified by calculating the average object area (µm²) of validated parasite structures per well. […] Dose-response inhibition and IC50 were calculated relative to in-plate negative controls (DMSO-treated wells). […]

In a further data set the test system is P. cynomolgi hypnozoite. Description: Hypnozoite formation in primary simian hepatocytes, high-content imaging. Format: cell-based, Plasmodium cynomolgi. As to conditions: Plasmodium cynomolgi, Hepatocyte. As to the method: (§4) Liver stage antimalarial activity was evaluated using sporozoites from P. falciparum (NF54 strain) and P. cynomolgi bastianellii (B strain). P. falciparum-infected Anopheles stephensi mosquitoes were reared at WRAIR, while P. cynomolgi-infected Anopheles dirus mosquitoes were obtained from the Armed Forces Research Institute of Medical Sciences (AFRIMS), Thailand. Sporozoites were isolated by dissecting salivary glands under sterile conditions, followed by gentle mechanical disruption. Freshly isolated sporozoites were immediately used for hepatocyte infection.
as §3
(§5) Test compounds (PfPKG inhibitors) and assay drug controls (KDU-691 and tafenoquine) were solubilized in DMSO or PBS and serially diluted into 8- or 12-point, 2- or 3-fold series, achieving final assay concentrations ranging from 20 µM to 0.019 µM. Compounds were introduced using a calibrated pin tool controlled by robotic arms (V&P Scientific), ensuring a 1:1000 dilution into assay wells. Media were replenished daily with fresh drug-containing HCM. […]
(§6) Cells were fixed using 4% paraformaldehyde for 20 minutes at room temperature, followed by three PBS washes, and stored at 4°C until further processing. Parasite detection was performed using species-specific primary antibodies, with P. cynomolgi parasites labeled using a mouse monoclonal anti-Plasmodium GAPDH antibody (1.6 μg/mL, European Malaria Reagent Repository) and P. falciparum parasites detected using a rabbit polyclonal anti-PfHSP70 antibody (1:70 dilution, LS Bio, USA). […]
(§7) High-content imaging was performed using the Operetta CLS system (Revvity) and image analysis was performed with Harmony software version 4.9 (Revvity, Waltham, MA, USA). Images were acquired at 10x or 20x magnification using DAPI and TRITC fluorescence channels. Following the established protocol, parasites were classified as hypnozoites or schizonts based on fluorescence intensity (mean and maximum), morphological features (cell roundness and size), and segmentation criteria. […]

The test system of the next data set is P. cynomolgi schizont. Kind of data set: Schizont formation in primary simian hepatocytes, high-content imaging. As to conditions: Plasmodium cynomolgi, Hepatocyte. Format: cell-based, Plasmodium cynomolgi. On the procedure: as §4, §3, §5, §6, §7
The mark [5] stands for this setting: from IC50 ≈ Kd, ∆G = -RTln(Kd), 300K.

T1 sequence (O75116 whole entry): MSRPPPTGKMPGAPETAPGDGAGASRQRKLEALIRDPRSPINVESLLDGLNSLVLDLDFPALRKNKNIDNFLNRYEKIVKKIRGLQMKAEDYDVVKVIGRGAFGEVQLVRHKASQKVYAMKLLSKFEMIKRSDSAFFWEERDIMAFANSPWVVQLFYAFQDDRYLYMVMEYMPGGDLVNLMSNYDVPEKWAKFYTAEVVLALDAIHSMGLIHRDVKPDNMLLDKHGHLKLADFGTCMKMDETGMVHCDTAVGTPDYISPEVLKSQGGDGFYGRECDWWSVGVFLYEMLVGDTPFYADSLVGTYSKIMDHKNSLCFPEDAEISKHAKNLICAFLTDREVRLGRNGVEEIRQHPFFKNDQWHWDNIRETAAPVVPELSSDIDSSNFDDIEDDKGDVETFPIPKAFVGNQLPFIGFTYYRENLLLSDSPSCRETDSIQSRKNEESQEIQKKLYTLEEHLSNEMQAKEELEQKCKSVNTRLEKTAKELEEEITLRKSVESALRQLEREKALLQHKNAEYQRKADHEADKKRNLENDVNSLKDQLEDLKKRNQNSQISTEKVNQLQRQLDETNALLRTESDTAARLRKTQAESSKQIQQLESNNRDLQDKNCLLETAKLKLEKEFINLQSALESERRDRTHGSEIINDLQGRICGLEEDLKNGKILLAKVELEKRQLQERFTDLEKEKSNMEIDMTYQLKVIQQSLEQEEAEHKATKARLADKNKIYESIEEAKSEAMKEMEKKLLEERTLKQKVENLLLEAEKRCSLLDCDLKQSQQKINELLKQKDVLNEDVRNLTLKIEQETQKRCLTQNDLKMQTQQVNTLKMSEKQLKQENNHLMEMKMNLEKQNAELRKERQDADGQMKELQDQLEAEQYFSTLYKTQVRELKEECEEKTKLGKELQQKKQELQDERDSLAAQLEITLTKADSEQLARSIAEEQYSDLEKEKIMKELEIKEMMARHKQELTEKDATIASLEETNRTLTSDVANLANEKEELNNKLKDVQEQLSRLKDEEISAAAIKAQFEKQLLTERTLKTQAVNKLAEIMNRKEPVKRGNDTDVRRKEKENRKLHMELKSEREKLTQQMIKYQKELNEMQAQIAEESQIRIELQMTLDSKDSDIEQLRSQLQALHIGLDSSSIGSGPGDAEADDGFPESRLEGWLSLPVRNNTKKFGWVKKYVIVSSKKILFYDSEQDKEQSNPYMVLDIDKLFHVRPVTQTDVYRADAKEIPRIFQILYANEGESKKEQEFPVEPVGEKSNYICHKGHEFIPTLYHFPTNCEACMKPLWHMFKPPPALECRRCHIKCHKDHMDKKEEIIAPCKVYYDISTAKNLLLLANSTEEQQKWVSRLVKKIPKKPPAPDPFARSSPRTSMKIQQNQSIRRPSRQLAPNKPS

For the molecule `C[C@H]1[C@@H](O)O[C@@H]2O[C@@]3(C)CC[C@H]4[C@H](C)CC[C@@H]1[C@@]24OO3` [DHA, dihydroartemisinin, reference compound], the IC50 (usually the concentration that gives 50% inhibition) in the data set on P. falciparum K1 was 2 nM; in the data set with P. falciparum 7G8 it was 0.5 nM; in the data set on P. falciparum Dd2-B2 it was 3 nM; with P. falciparum 3D7, 2 nM.
Take `CN1CCC(c2cc(-c3ccncc3C#N)c(-c3ccc(F)cc3)[nH]2)CC1` [RUPB-8]: at ROCK2, the “Kd for ROCK2 higher compared to RUPB-61” value is given as 40–700 fold and the Kd (commonly a measure of binding affinity in units of concentration) was 1100 nM. Besides, the equilibrium dissociation constant (Kd) at CIT is 12 nM. Moreover, at ROCK1, the “Kd for ROCK1 higher compared to RUPB-61” value was 40–700 fold, the Kd came to 780 nM and the “ROCK1 Experimental Binding (ΔG)” value was -8.4 kcal/mol.
For `CN1CCC(c2[nH]c(-c3ccc(F)cc3)c(-c3ccncc3)c2C#N)CC1` [RUPB-18], on ROCK2, the “Kd for ROCK2 higher compared to RUPB-61” value is on record as 40–700 fold and the equilibrium dissociation constant (Kd) is 560 nM. For the same molecule, at CIT, the “Kd for CIT higher compared to RUPB-61” value is listed as 5–125 fold and the dissociation constant (Kd) is 25 nM. Moreover, at ROCK1, the “Kd for ROCK1 higher compared to RUPB-61” value was 40–700 fold, the dissociation constant Kd was found to be 700 nM and the “ROCK1 Experimental Binding (ΔG)” value is -8.4 kcal/mol.
For the molecule `COc1ccc(-c2[nH]c(C3CCN(C)CC3)cc2-c2ccncc2)cc1` [RUPB-34], at ROCK2, the “Kd for ROCK2 higher compared to RUPB-61” value is 40–700 fold and the Kd came to 6400 nM. Moreover, on CIT, the “Kd for CIT higher compared to RUPB-61” value is 5–125 fold and the dissociation constant (Kd) came out at 620 nM. Moreover, on ROCK1, the “Kd for ROCK1 higher compared to RUPB-61” value is given as 40–700 fold, the dissociation constant Kd worked out at 9200 nM and the “ROCK1 Experimental Binding (ΔG)” value is -6.9 kcal/mol.
As for `C[C@H]1CN(C)CC[C@H]1c1cc(-c2ccncc2)c(-c2ccc(F)cc2)[nH]1.Cl.Cl` [RUPB-58, 4-{5-[(3R,4R)-1,3-Dimethylpiperidin-4-yl]-2-(4-fluorophenyl)-1H-pyrrol-3-yl}pyridine Dihydrochloride], the “IC50 against DHA-sensitive CamWT compared with DHA-resistant CamC580Y” value (“IC50 … compared with DHA-resistant CamC580Y” below) in data set [1] is on record as “similar”. For the same molecule, the half-inhibitory concentration (IC50) with P. falciparum K1 was 239 nM; with P. falciparum 7G8, 57 nM; with P. falciparum Dd2-B2, 467 nM; in the data set on P. falciparum 3D7, 170 nM; in the data set with P. falciparum TM90_C2B, 122 nM.
On to `C[C@H]1CN(C)CC[C@@H]1c1cc(-c2ccncc2)c(-c2ccc(F)cc2)[nH]1.Cl.Cl` [RUPB-59, 4-{5-[(3R,4S)-1,3-Dimethylpiperidin-4-yl]-2-(4-fluorophenyl)-1H-pyrrol-3-yl}pyridine Dihydrochloride], for which the “IC50 … compared with DHA-resistant CamC580Y” value in data set [1] was “similar”. The IC50 in the data set with P. falciparum K1 came out at 148 nM; in the data set with P. falciparum 7G8 it was 135 nM; in the data set with P. falciparum Dd2-B2, 353 nM; in the data set with P. falciparum 3D7 it was 80 nM; in the data set on P. falciparum TM90_C2B, 120 nM.
Consider `C[C@@H]1CN(C)CC[C@H]1c1cc(-c2ccncc2)c(-c2ccc(F)cc2)[nH]1.Cl.Cl` [RUPB-60, 4-{5-[(3S,4R)-1,3-Dimethylpiperidin-4-yl]-2-(4-fluorophenyl)-1H-pyrrol-3-yl}pyridine Dihydrochloride], for which the “IC50 … compared with DHA-resistant CamC580Y” value in data set [1] is “similar”. Also, the concentration for half-maximal inhibition (IC50) in the data set with P. falciparum K1 was 81 nM; in the data set with P. falciparum 7G8, 28 nM; with P. falciparum Dd2-B2, 144 nM; in the data set on P. falciparum 3D7, 50 nM; in the data set on P. falciparum TM90_C2B, 80 nM. The “IC50 against PfPKG variants, RUPB-60 compared with RUPB-61” value in the data set with PfPKG [2] is “similar”.
In the case of `CN1CCC(c2cc(-c3ccncc3)c(-c3ccc(F)c(C(C)(C)O)c3)[nH]2)CC1` [RUPB-69, 2-(2-Fluoro-5-(5-(1-methylpiperidin-4-yl)-3-(pyridin-4-yl)-1H-pyrrol-2-yl)phenyl)propan-2-ol], at CIT, the “Kd for CIT higher compared to RUPB-61” value is reported as 5–125 fold and the Kd is 210 nM. For the same molecule, the “improvement in PfPKG IC50 compared to RUPB-61” value on PfPKG [3] amounted to 10 fold. At PfPKG [3] (setting [5]), the “PfPKG (ΔG)” value is on record as -12.1 kcal/mol and the “PfPKG Experimental Binding (ΔG)” value was -12.1 kcal/mol.
On to `COC(=O)c1cc(-c2[nH]c(C3CCN(C)CC3)cc2-c2ccncc2)ccc1F` [RUPB-72, Methyl 2-fluoro-5-(5-(1-methylpiperidin-4-yl)-3-(pyridin-4-yl)-1H-pyrrol-2-yl)benzoate], for which, on PfPKG [3], the IC50 was 17.2 nM.
Still for that read-out and setting: the same measure for `CCC(O)(CC)c1cc(-c2[nH]c(C3CCN(C)CC3)cc2-c2ccncc2)ccc1F` [RUPB-73, 3-(2-Fluoro-5-(5-(1-methylpiperidin-4-yl)-3-(pyridin-4-yl)-1H-pyrrol-2-yl)phenyl)pentan-3-ol]: 256 nM.
With `COc1cc(C)c2c(Oc3cccc(C(F)(F)F)c3)c(OC)cc(NC(C)CCCN)c2n1` (centres unmarked) [Tafenoquine, tafenoquine], in [4], the cytotoxic concentration (CC50) (usually the concentration giving 50% cytotoxicity) at 3 days turned out to be 3600 nM. Also, the figures for the IC50 in the data set on P. cynomolgi hypnozoite and with P. cynomolgi schizont were 85 nM and 41 nM, respectively.

The values above are taken from paper PMC13422867, “An orally available PfPKG inhibitor blocks Plasmodium’s infection of the liver” (PLOS Pathogens, 2026).
